Legend:
ERK1/2 [1] = assay: Phospho-/total ERK1/2 ELISA in EGF-stimulated T-47D cell smears; assay type: cell-based, human; conditions: T-47D cells, AG1478 0.5 uM, PD98059 20 uM
Method: T47D cells were maintained in Dulbecco's modified Eagle's medium (Life Technologies, Inc.) supplemented with 10% fetal calf serum and antibiotics (Life Technologies, Inc.). Prior to EGF (Sigma) stimulation, cells were starved for 24 h in serum-free medium.
(§1) Total cell lysates were obtained from either cells cultured in vitro or from tumor FNAB samples. Protein extracts were resolved by 4-15% SDS-PAGE and probed with Rabbit anti-EGFR, anti-phospbo-EGFR, anti-ERK1 and anti-phospho-ERK antibodies obtained from New England Biolabs (Beverly, Mass.). Immunoreactive proteins were visualized by enhanced chemiluminescence (Amersham International, United Kingdom). Total and phospho-ERK1/2 proteins were quantified by sandwich [LISA kits (BioSource International, Camarillo, Calif., USA) as described in the manufacturer's protocols. The reaction was read at 450 nm in an ELISA plate reader.
Western blot analysis of protein samples is a conventional method for phosphoprotein analysis. However, Western blot analysis is limited in throughput and quantitative precision, and also requires large sample amounts. […] Therefore, it was tested if quantitative ELISA assays can be applied to cytologic samples to increase the assay sensitivity to measure the expression levels and activation status of specific signaling pathways. […]

ERK1/2 [2] = assay: Ex vivo treatment of human breast cancer cells obtained by FNAB, ERK1/2 phosphorylation; assay type: cell-based; conditions: 3 hours, AG1478 0.5 uM, PD98059 20 uM
Method: (§2) To obtain cancer cells cancer tumor tissue was sampled four times with a sterile 25G short needle and tumor samples were immediately transferred into 10 ml sterile prewarmed complete RPMI-1640 culture medium containing 10% fetal calf serum, penicillin (200 ug/ml) and streptomycin (200 ug/nil). After centrifugation and cells were resuspended and distributed in 6-well microculture plates and treated in duplicates with vehicle alone (DMSO control), an EGFR inhibitor AG1478 (0.5 uM) (Calbiochem, 658548), a MEK/ERK inhibitor PD98059 (20 uM) (Biosource International, PHZ 1164) or with a PI3K/AKT inhibitor LY294002 (10 uM) (Biosource International, PHZI 144) in a humidified 5% CO2 incubator at 37° C. for 3 hours.
(§3) Following treatment nonadherent and adherent cells (collected by scraping) were pooled together in a 1.5 ml microcentrifuge tube and centrifuged at 500×g for 5 min at 4° C. After washing with PBS, cells were lysed in 100 μl of ice-cold lysis buffer and therapy-induced changes n the expression and phosphorylation levels of AKT and ERK1/2 were detected by Western blot.

AKT = assay: Ex vivo treatment of human breast cancer cells obtained by FNAB, AKT phosphorylation; assay type: cell-based; conditions: 3 hours, AG1478 0.5 uM, LY294002 10 uM
Method: as §2, §3

ERK1/2 [3] = assay: Panc 265 xenograft FNAB cells treated ex vivo, ERK1/2 phosphorylation; assay type: cell-based, human; conditions: Panc 265 FNAB cells; ZD1839 5 uM; 6 hours
Method: (§4) To obtain cancer cells, each animal tumor was sampled as described above. After collection of tumor FNAB samples, xenograft animals were subsequently treated with ZD1839 or CCI-779 for 28 days and tumor volumes were determined as described above. At day 7 of therapy, AD/DQ slides were prepared from tumor FNAB samples to retrospectively correlate the results of in vivo and ex vivo chemosentitivty tests from the same xenograft animal.
To determine viability of tumor cells obtained by FNAB, trypan blue dye exclusion assay was performed. The viability of tumor cells obtained by tumor FNAB from control animals was over 95%. Approximately 75,000 tumor cells were seeded into each well of a 6-well polypropylene microplate. Cells were treated in duplicates with vehicle (control) or with ZD1839 (5 uM) or CCI-779 (1 uM) in a humidified 5% CO2 incubator at 37° C. for different periods to determine the optimal treatment time to analyze drug effects.
(§5) After the treatment cells were collected, protein extracts were prepared and Western blot analysis was performed as described above. The ex vivo effect of ZD 1839 and CCI-779 on phosphorylation of ERK1/2 or S6 ribosomal proteins, respectively, was correlated with the in vivo data gathered from the FNAB smears prepared at day 7 of treatment.

ERK1/2 [4] = assay: Panc 265 xenograft in vivo FNAB smears, ERK1/2 activity; design: species or system human; conditions: ZD1839 150 mg/Kg daily i.p., FNAB day 7
Method: Animals were either untreated or treated with ZD1839: 150 mg/Kg daily or CCI-779: 20 mg/kg days 1-5 by intraperitoneal injection
as §4, §5

HuCCT-1 tumors = assay: HuCCT-1 xenograft tumor growth; assay type: in vivo, athymic (nu+/nu+) mice; conditions: single agents: gefitinib 150 mg/Kg i.p. days 1-5 and 8-12, CI-1040 150 mg/Kg twice a day oral days 1-14
Method: (§6) Four to 6-week-old female athymic (nu+/nu+) mice were purchased from Harlan (Harlan Laboratories, Washington, D.C.). The research protocol was approved by the Johns Hopkins University Animal Care Committee and animals were maintained in accordance with the guidelines of the American Association of Laboratory Animal Care. […] Mice were monitored daily for signs of toxicity and were weighed three times per week. Tumor size was evaluated three times per week by caliper measurements using the following formula: tumor volume=[length×width^2]/2. Tumor growth inhibition was calculated by tumor volume of treated mice divided by tumor volume of control mice. Experiments were terminated on day 14.
To explore the feasibility of implementing this method in in vivo studies, mouse xenografts were next employed to test whether FNAB material obtained from tumor tissue can be utilized to monitor and predict therapy response in vivo. For this purpose HuCCT-1 cholangiocarcinoma cells were used to create a xenograft mouse model of human cholangiocarcinoma. […] Tumor volumes were measured and compared with tumors from animals that received drug vehicle alone.

ERK1/2 [5] = assay: HuCCT-1 xenograft tumor FNAB Western blot, ERK1/2 activity; assay type: in vivo, human; conditions: in vivo
Method: as §6
Fine needle aspirates were obtained with a 25G needle and 10 ml syringe, passing the needle through the tumor 10 times with application of 1-2 ml suction The aspirated material was expressed onto clear glass slides and smeared. All smears were allowed to air dry and then stained with Diff-Quik stain (Baxter Healthcare, Miami, Fla.). Five to ten AD/DQ-stained cytological smears were prepared from each tumor sample. The cellular composition of each aspirate was assessed by cytopathologists.
as §1, with “Protein extracts were resolved by 4-15% SDS-PAGE and probed with Rabbit anti-EGFR, anti-phospbo-EGFR, anti-ERK1 and anti-phospho-ERK antibodies obtained from New England Biolabs (Beverly, Mass.).” left out
Next, whether FNAB samples obtained from tumor tissue at the early stage of therapy can be used to predict tumor response was examined. […] Expression and phosphorylation levels of ERK 1/2 were analyzed on Western blot by using extracts prepared from AD/DQ-stained FNAB samples.

ERK1/2 [6] = assay: HuCCT-1 xenograft tumor FNAB phospho-/total ERK1/2 ELISA; assay type: in vivo, human
Method: as §6
as §1, with “Protein extracts were resolved by 4-15% SDS-PAGE and probed with Rabbit anti-EGFR, anti-phospbo-EGFR, anti-ERK1 and anti-phospho-ERK antibodies obtained from New England Biolabs (Beverly, Mass.).” left out
Western blot analysis of protein samples is a conventional method for phosphoprotein analysis, but is limited in throughput, quantitative precision and requires large sample amounts. ELISA assays offer alternatives to Western blot with higher throughput and increased sensitivity. […] For this purpose the tumor FNAB samples, which have been analyzed on Western blot above (FIG. 16A), were used to assess the expression and phosphorylation of ERK1/2 proteins by the total and phospho-specific ERK1/2 ELISA assays, respectively.
The amounts of phosphorylated ERK1/2 were normalized for the total contents of these proteins in each sample group and therapy-mediated changes in their phosphorylation status were quantified.

Compound | inhibition of EGF-induced ERK1/2 phosphorylation (phospho-ELISA normalized for total ERK1/2) (ERK1/2 [1]) [%] | phosphorylation of ERK1/2 (ERK1/2 [2]) | phosphorylation of AKT (AKT) | ERK1/2 phosphorylation ex vivo (ERK1/2 [3]) | ERK1/2 activity in vivo (ERK1/2 [4]) | decrease in tumor volume (HuCCT-1 tumors) [%] | ERK1/2 activity, serial FNAB sampling (ERK1/2 [5]) | phosphorylation levels of ERK1/2 by phospho-ERK1/2 ELISA (raw data) (ERK1/2 [6]; HuCCT-1 tumor FNAB samples of treated animals) | increase of ERK1/2 phosphorylation (normalized for total ERK1/2) (ERK1/2 [6]; HuCCT-1 tumor FNAB, gefitinib alone) [%]
COc1cc2ncnc(Nc3cccc(Cl)c3)c2cc1OC [AG1478] | 80 | reduced the phosphorylation of both ERK1/2 and AKT proteins | reduced the phosphorylation of both ERK1/2 and AKT proteins | – | – | – | – | – | –
COc1cc2ncnc(Nc3ccc(F)c(Cl)c3)c2cc1OCCCN1CCOCC1 [gefitinib, Gefitinib] | – | – | – | failed to block ERK1/2 phosphorylation | failed to block ERK1/2 activity | 4 | neither of these agents alone caused inhibition | neither gefitinib nor CI-1040 treatment alone caused any significant change | 17
